Assays:
[1] = system: rainbow trout (虹鳟); test: Toxicity to rainbow trout by organ histology (H&E), uninfected; format: in vivo; details: DCA-fed (0.2 mg/fish), liver, intestine, kidney histology
[2] = system: IHNV (传染性造血器官坏死病病毒); test: Survival of IHNV-infected rainbow trout fed deoxycholic acid; format: in vivo; details: 0.2 mg/fish per feeding, 7 days before injection of 10^4 PFU IHNV, 14 d observation, 16 °C; control 30%
[3] = system: IHNV (传染性造血器官坏死病病毒); test: Inhibition of IHNV in EPC cells (RT-qPCR of IHNV-G gene); format: cell-based; details: 50 μM, 0.1 MOI IHNV, 16 °C, 24 h, P<0.0001 vs control
[4] = system: SVCV (鲤春病毒血症病毒); test: Survival of SVCV-infected zebrafish fed deoxycholic acid; format: in vivo; details: 0.2 mg/fish per feeding, 7 days before injection of 10^4 PFU SVCV, 14 d observation, 16 °C; control 23.33%
[5] = system: SVCV (鲤春病毒血症病毒); test: Viral load in organs of SVCV-infected zebrafish (absolute quantification of SVCV-G); format: in vivo; details: 5 d after SVCV infection, DCA 0.2 mg/fish fed
[6] = system: SVCV (鲤春病毒血症病毒); test: Histopathology (H&E) of organs of SVCV-infected zebrafish; format: in vivo; details: zebrafish liver, intestine, kidney, 5 d after SVCV infection, versus SVCV infection group
[7] = system: SVCV (鲤春病毒血症病毒); test: Inhibition of SVCV-G gene expression in EPC cells (RT-qPCR); format: cell-based; details: 12 h pretreatment, 0.1 MOI SVCV, 28 °C, 24 h
[8] = system: IHNV (传染性造血器官坏死病病毒); test: Histopathology (H&E) of organs of IHNV-infected rainbow trout; format: in vivo; details: rainbow trout liver, intestine, kidney, 5 d after IHNV infection, versus IHNV infection group
[9] = system: zebrafish (斑马鱼); test: Toxicity to zebrafish by organ histology (H&E), uninfected; format: in vivo; details: DCA-fed (0.2 mg/fish), liver, intestine, kidney histology
[10] = system: SVCV-G protein (SVCV-G蛋白); test: Inhibition of SVCV-G protein expression in EPC cells (western blot); format: cell-based; details: 1-50 μM, increasing concentration, 0.1 MOI SVCV, 28 °C, 24 h
[11] = system: IHNV (传染性造血器官坏死病病毒); test: Viral load in organs of IHNV-infected rainbow trout (IHNV-G quantification); format: in vivo; details: 5 d after IHNV infection, DCA 0.2 mg/fish fed
[12] = system: SVCV (鲤春病毒血症病毒); test: Inhibition of SVCV virus particle formation (plaque assay on EPC cell supernatant); format: cell-based; details: 50 μM, EPC cells, 0.1 MOI SVCV, 28 °C, 24 h; control 10^6.11 PFU/mL

SMILES: C[C@H](CCC(=O)O)[C@H]1CC[C@H]2[C@@H]3CC[C@@H]4C[C@H](O)CC[C@]4(C)[C@H]3C[C@H](O)[C@]12C [去氧胆酸]
- toxicity to rainbow trout [1]: 没有毒性
- survival rate of IHNV-infected rainbow trout [2]: 60%
- IHNV viral load [3]: 显著降低
- survival rate of SVCV-infected zebrafish [4]: 66.67%
- viral load in intestine ([5]; intestine): 显著降低
- viral load in kidney ([5]; kidney): 显著降低
- viral load in liver ([5]; liver): 显著降低
- pathological damage caused by virus infection in organs [6]: 明显减轻
- inhibition at 1 µM ([7]; 1 μM, P<0.01, read-out: decrease of SVCV-G gene expression relative to control): 30.2%
- inhibition at 5 µM ([7]; 5 μM, P<0.001, read-out: decrease of SVCV-G gene expression relative to control): 49.2%
- inhibition at 10 µM ([7]; 10 μM, P<0.001, read-out: decrease of SVCV-G gene expression relative to control): 50.7%
- inhibition at 20 µM ([7]; 20 μM, P<0.0001, read-out: decrease of SVCV-G gene expression relative to control): 68%
- inhibition at 50 µM ([7]; 50 μM, P<0.0001, read-out: decrease of SVCV-G gene expression relative to control): 92%
- pathological damage caused by virus infection in organs [8]: 明显减轻
- toxicity to zebrafish [9]: 没有毒性
- SVCV G protein expression compared with control [10]: 依次降低
- viral load in intestine ([11]; intestine): 显著降低
- viral load in kidney ([11]; kidney): 显著降低
- SVCV detection in cell supernatant [12]: 无法被检测到

Source: CN116919972A, “去氧胆酸在制备抗水生病毒感染的药物或添加剂中的应用” (priority 2023, dated 2023)
